The values below come from the supplement of paper PMC10307832.

Holding throughout (experiment): relative viability (nuclei count vs DMSO), 5 days (fraction); higher = more cells survive
Compound in the experiment “Vemurafenib + Bortezomib”: CCCS(=O)(=O)Nc1ccc(F)c(C(=O)c2c[nH]c3ncc(-c4ccc(Cl)cc4)cc23)c1F [Vemurafenib] + CC(C)C[C@H](NC(=O)[C@H](Cc1ccccc1)NC(=O)c1cnccn1)B(O)O [Bortezomib] (partner 0.002 µM)
The essentials:
(§1)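 Each reported value is a median over duplicate plates. It expresses relative viability: treated-well nuclei count divided by vehicle-well nuclei count. Lung cancer cell lines in 1536-well plates were dosed by pin tool a day after seeding, alone with one drug or with a fixed anchor-drug dose plus five library-drug doses (not always all listed) in √10 steps, and nuclei were counted after 5 days.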

Compound in the experiment “Vemurafenib + Olaparib”: CCCS(=O)(=O)Nc1ccc(F)c(C(=O)c2c[nH]c3ncc(-c4ccc(Cl)cc4)cc23)c1F [Vemurafenib] + O=C(c1cc(Cc2n[nH]c(=O)c3ccccc23)ccc1F)N1CCN(C(=O)C2CC2)CC1 [Olaparib] (partner 8 µM)
The gist of the method:
as §1

Compound in the experiment “Alpelisib + Dasatinib”: Cc1nc(NC(=O)N2CCC[C@H]2C(N)=O)sc1-c1ccnc(C(C)(C)C(F)(F)F)c1 [Alpelisib] + Cc1nc(Nc2ncc(C(=O)Nc3c(C)cccc3Cl)s2)cc(N2CCN(CCO)CC2)n1 [Dasatinib] (partner 0.075 µM)
The gist of the method:
as §1

Compound in the experiment “Vemurafenib + Lapatinib”: CCCS(=O)(=O)Nc1ccc(F)c(C(=O)c2c[nH]c3ncc(-c4ccc(Cl)cc4)cc23)c1F [Vemurafenib] + CS(=O)(=O)CCNCc1ccc(-c2ccc3ncnc(Nc4ccc(OCc5cccc(F)c5)c(Cl)c4)c3c2)o1 [Lapatinib] (partner 2 µM)
The gist of the method: as §1

For UMC-11, the relative viability in the experiment with Vemurafenib + Bortezomib (first compound 0.03162 µM) was 0.468; in the experiment with Vemurafenib + Bortezomib (first compound 0.1 µM), 0.713; with Vemurafenib + Bortezomib (first compound 0.3162 µM) it was 0.57; with Vemurafenib + Bortezomib (first compound 1 µM), 0.296; in the experiment with Vemurafenib + Olaparib (first compound 0.03162 µM), 0.391; with Vemurafenib + Olaparib (first compound 0.1 µM), 0.4. The relative viability in the experiment with Vemurafenib + Olaparib (first compound 0.3162 µM) came out at 0.392; in the experiment with Vemurafenib + Olaparib (first compound 1 µM) it was 0.375; with Alpelisib + Dasatinib (first compound 0.04 µM), 0.426; in the experiment with Alpelisib + Dasatinib (first compound 0.1265 µM), 0.501; with Alpelisib + Dasatinib (first compound 0.4 µM), 0.537; with Alpelisib + Dasatinib (first compound 1.265 µM) it was 0.455. The relative viability with Alpelisib + Dasatinib (first compound 4 µM) turned out to be 0.473; in the experiment with Vemurafenib + Lapatinib (first compound 0.03162 µM), 0.698; in the experiment with Vemurafenib + Lapatinib (first compound 0.1 µM) it was 0.956; with Vemurafenib + Lapatinib (first compound 0.3162 µM), 0.73; with Vemurafenib + Lapatinib (first compound 1 µM) it was 0.625.
